Source: patent US9512114B2, “Substituted aminopyrimidine compounds and methods of use” (Calitor Sciences, LLC, priority 2013, dated 2016)

Assays:
[1] = molecular target: PI3K (p110δ/p85α) (h) (Homo sapiens (Human), UniProt O00329); assay: PI3K (p110δ/p85α) (h) non-radioactive HTRF kinase assay; format: biochemical; details: performed at Millipore UK Ltd
Summary of the method: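 Human p110δ/p85α incubated with 10 μM phosphatidylinositol-4,5-bisphosphate, reaction started with MgATP (concentration as required), 30 min at room temperature. Stopped with EDTA plus biotinylated PIP3; detection by HTRF with Eu-anti-GST antibody, GST-GRP1 PH domain and streptavidin-APC, signal = 10000×(Em665/Em620). Yields IC50 and/or Ki.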

[2] = molecular target: PI3K (p120γ) (h) (Homo sapiens (Human), UniProt P48736); assay: PI3K (p120γ) (h) non-radioactive HTRF kinase assay; format: biochemical; details: performed at Millipore UK Ltd
Description: The above assay procedure can be used to determine the IC50 for inhibition and/or the inhibition constant, Ki.
PI3K (p120γ) (h) [Non-Radioactive Assay]
PI3K (p120γ) (h) is incubated in assay buffer containing 10 μM phosphatidylinositol-4, 5-bisphosphate and MgATP (concentration as required). The reaction is initiated by the addition of the MgATP mix. After incubation for 30 minutes at room temperature, the reaction is stopped by the addition of stop solution containing EDTA and biotinylated phosphatidylinositol-3,4,5-trisphosphate. Finally, detection buffer is added, which contains europium-labelled anti-GST monoclonal antibody, GST-tagged GRP1 PH domain and streptavidin-allophycocyanin. The plate is then read in timeresolved fluorescence mode and the homogenous time-resolved fluorescence (HTRF) signal is determined according to the formula HTRF=10000×(Em665 nm/Em620 nm).
The kinase assays described herein were performed at Millipore UK Ltd, Dundee Technology Park, Dundee DD2 1SW, UK.

[3] = Pharmacokinetic profiles in monkeys; format: in vivo; details: Monkey; for Cl/F / AUC(0-t) / half-life / Vd: iv dosing 1 mg/kg; for F: oral vs iv (iv 1 mg/kg; p.o. generally 10 mg/kg); for AUC(0-t) / half-life / Vd: plasma; for Vd: read-out: Vss
Description: (§1) The compounds disclosed herein are assessed in pharmacokinetic studies in mice, rats, dogs or monkeys. The compounds are administered as a water solution, 2% HPMC+1% TWEEN®80 in water solution, 5% DMSO+5% solutol in saline, 4% MC suspension or capsule. For the intravenous administration, the animals are generally given at 1 or 2 mg/kg dose. For the oral (p.o.) dosing, mice and rats are generally given 5 or 10 mg/kg dose, and dogs and monkeys are generally given 10 mg/kg dose. The blood samples (0.3 mL) are drawn at 0.25, 0.5, 1.0, 2.0, 3.0, 4.0, 6.0, 8.0, 12 and 24 h time points or 0.083, 0.25, 0.5, 1.0, 2.0, 4.0, 6.0, 8.0 and 24 h time points and centrifuged at 3,000 or 4000 rpm for 2 to 10 min. The plasma solutions are collected, stored at −20° C. or −70° C. until analyzed by LC/MS/MS as described above.

[4] = Pharmacokinetic profiles in dogs; format: in vivo; details: Dog; for clearance / AUC(0-t) / half-life / Vd: iv dosing 1 mg/kg; for F: oral vs iv (iv 1 mg/kg; p.o. generally 10 mg/kg); for AUC(0-t) / half-life / Vd: plasma; for Vd: read-out: Vss
Description: as §1

Sequence of PI3K (p110δ/p85α) (h) (O00329 whole entry, the tested form may be a part): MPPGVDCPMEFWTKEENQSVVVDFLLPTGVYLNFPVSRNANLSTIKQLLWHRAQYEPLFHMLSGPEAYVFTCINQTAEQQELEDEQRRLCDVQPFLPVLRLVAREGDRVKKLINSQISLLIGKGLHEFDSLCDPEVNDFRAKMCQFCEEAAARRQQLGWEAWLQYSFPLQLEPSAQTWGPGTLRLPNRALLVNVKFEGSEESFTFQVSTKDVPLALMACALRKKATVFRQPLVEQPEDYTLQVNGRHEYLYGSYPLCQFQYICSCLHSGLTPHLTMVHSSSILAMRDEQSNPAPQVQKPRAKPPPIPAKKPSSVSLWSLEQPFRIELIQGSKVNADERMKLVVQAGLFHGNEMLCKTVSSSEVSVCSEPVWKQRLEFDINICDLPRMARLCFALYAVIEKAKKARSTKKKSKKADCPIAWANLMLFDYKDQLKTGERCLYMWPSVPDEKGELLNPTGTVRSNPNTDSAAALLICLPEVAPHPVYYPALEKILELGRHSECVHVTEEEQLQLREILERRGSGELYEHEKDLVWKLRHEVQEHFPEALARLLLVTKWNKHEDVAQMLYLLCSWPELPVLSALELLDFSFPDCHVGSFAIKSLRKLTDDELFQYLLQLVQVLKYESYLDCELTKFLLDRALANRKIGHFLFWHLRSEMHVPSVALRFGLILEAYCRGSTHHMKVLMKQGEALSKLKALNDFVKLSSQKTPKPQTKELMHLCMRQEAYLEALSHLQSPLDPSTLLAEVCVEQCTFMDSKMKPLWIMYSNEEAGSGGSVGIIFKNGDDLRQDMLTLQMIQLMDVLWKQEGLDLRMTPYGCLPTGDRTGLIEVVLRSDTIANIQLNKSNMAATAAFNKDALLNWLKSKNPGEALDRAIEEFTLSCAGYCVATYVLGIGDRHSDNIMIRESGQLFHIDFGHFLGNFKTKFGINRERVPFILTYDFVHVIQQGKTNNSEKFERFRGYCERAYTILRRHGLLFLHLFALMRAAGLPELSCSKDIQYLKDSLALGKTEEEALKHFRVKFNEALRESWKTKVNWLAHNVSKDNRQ
Sequence of PI3K (p110δ/p85α) (h) (P27986 whole entry partner, the tested form may be a part): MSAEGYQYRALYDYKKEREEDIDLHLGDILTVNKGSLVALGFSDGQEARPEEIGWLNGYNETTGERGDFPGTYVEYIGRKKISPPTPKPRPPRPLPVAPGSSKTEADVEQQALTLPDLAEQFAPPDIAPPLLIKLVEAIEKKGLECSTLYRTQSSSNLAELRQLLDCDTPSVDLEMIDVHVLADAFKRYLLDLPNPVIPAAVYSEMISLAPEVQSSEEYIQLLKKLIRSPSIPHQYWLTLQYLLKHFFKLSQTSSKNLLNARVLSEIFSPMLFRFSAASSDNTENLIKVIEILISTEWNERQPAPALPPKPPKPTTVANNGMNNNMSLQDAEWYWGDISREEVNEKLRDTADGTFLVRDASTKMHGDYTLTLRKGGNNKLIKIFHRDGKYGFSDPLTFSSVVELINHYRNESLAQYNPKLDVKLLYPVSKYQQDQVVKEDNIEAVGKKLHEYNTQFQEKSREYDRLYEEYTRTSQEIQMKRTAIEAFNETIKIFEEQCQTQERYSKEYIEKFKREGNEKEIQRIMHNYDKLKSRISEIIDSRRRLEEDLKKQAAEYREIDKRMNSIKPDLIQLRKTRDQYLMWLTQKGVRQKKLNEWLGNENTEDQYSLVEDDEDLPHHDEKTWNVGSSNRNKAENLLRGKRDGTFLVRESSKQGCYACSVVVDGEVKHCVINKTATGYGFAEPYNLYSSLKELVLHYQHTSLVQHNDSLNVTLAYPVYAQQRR
Sequence of PI3K (p120γ) (h) (P48736 whole entry): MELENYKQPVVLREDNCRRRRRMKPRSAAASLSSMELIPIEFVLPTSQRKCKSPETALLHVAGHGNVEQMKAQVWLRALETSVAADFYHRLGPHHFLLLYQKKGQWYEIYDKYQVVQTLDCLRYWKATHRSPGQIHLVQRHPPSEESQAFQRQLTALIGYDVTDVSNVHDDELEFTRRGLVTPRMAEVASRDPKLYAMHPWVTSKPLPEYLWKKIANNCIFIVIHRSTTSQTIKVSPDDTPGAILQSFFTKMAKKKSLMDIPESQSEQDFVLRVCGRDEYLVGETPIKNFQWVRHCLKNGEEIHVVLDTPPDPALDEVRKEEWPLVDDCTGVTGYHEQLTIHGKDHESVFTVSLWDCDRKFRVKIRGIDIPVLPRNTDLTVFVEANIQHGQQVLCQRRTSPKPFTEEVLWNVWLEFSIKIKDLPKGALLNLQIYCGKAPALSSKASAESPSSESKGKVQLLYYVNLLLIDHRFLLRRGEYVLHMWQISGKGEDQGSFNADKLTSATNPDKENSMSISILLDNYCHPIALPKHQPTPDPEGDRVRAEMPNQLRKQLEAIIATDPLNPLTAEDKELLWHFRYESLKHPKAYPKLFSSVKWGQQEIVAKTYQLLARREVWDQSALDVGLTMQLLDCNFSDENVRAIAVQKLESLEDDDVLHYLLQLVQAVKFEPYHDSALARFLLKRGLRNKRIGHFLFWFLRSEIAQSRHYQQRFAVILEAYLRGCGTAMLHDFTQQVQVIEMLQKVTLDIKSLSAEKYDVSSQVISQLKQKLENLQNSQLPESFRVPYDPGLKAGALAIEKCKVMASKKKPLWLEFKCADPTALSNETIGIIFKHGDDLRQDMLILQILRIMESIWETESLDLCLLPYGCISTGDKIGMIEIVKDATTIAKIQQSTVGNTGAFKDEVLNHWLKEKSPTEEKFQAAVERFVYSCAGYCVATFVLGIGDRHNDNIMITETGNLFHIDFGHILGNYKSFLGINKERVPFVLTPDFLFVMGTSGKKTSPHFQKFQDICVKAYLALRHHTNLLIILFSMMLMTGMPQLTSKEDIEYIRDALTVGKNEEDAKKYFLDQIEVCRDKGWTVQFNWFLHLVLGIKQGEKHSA

Structure (SMILES) | IC50 [1] | IC50 [2] | Cl/F [3] | F [3] | AUC(0-t) [3] | half-life [3] | Vd [3] | clearance [4] | F [4] | AUC(0-t) [4] | half-life [4] | Vd [4]
Cc1nnc(-c2c(N)ncnc2N[C@@H](C)c2cc3cccc(-c4cnn(C)c4)c3c(=O)n2C2CC2)o1 [Ex. 25, (S)-3-(1-((6-amino-5-(5-methyl-1,3,4-oxadiazol-2-yl)pyrimidin-4-yl)amino)ethyl)-2-cyclopropyl-8-(1-methyl-1H-pyrazol-4-yl)isoquinolin-1 (2H)-one] | 13 nM | 325 nM | – | – | – | – | – | – | – | – | – | –
Cc1noc(-c2c(N)ncnc2N[C@@H](C)c2cc3cccc(-c4cnn(C)c4)c3c(=O)n2C2CC2)n1 [Ex. 26, (S)-3-(1-((6-amino-5-(3-methyl-1,2,4-oxadiazol-5-yl)pyrimidin-4-yl)amino)ethyl)-2-cyclopropyl-8-(1-methyl-1H-pyrazol-4-yl)isoquinolin-1 (2H)-one] | 4 nM | 65 nM | – | – | – | – | – | – | – | – | – | –
Cc1nnc(-c2c(N)ncnc2N[C@@H](C)c2cc3cccc(Cl)c3c(=O)n2-c2ccccc2)o1 [Ex. 9, (S)-3-(1-((6-amino-5-(5-methyl-1,3,4-oxadiazol-2-yl)pyrimidin-4-yl)amino)ethyl)-8-chloro-2-phenylisoquinolin-1(2H)-one] | 4 nM | 255 nM | 14.8 mL/min/kg | 179.7% | 1120 ng·h/mL | 1.23 h | 1.17 L/kg | 23.7 mL/min/kg | 72.99% | 695 ng·h/mL | 1.25 h | 2.04 L/kg
Cc1noc(-c2c(N)ncnc2N[C@@H](C)c2cc3cccc(Cl)c3c(=O)n2-c2ccccc2)n1 [Ex. 8, (S)-3-(1-((6-amino-5-(3-methyl-1,2,4-oxadiazol-5-yl)pyrimidin-4-yl)amino)ethyl)-8-chloro-2-phenylisoquinolin-1(2H)-one] | 1 nM | 74 nM | 24.3 mL/min/kg | 13.1% | 711 ng·h/mL | 0.65 h | 1.2 L/kg | 12.2 mL/min/kg | 52.85% | 1350 ng·h/mL | 1.7 h | 1.43 L/kg
Cc1nnc(-c2c(N)ncnc2N[C@@H](C)c2cc3cccc(Cl)c3c(=O)n2C2CC2)o1 [Ex. 4, (S)-3-(1-((6-amino-5-(5-methyl-1,3,4-oxadiazol-2-yl)pyrimidin-4-yl)amino)ethyl)-8-chloro-2-cyclopropylisoquinolin-1(2H)-one] | 11 nM | 387 nM | – | – | – | – | – | – | – | – | – | –
